From patent publication US12239711B2, “Cereblon ligands and bifunctional compounds comprising the same” (Arvinas Operations, Inc., priority 2014, dated 2025)

Columns and labels:
[1] = target: T1, BRaf (Homo sapiens, UniProt P15056, V600E); assay: BRaf protein degradation assay in A375 cells (western blot / In-Cell Western); type: cell-based; details: for Dmax: A-375
T1 construct: endogenous in cells; host or cells: A375 cells
Protocol: 5. BRaf Protein In Vitro Degradation Assay (A375 Cells) of Table 7
A375 cells were cultured in ATCC DMEM+10% FBS in 12 well plates, and treated with indicated compound from Tables 1-41 or 0.1% DMSO vehicle control for 16 hours. Cells were harvested in Cell Signaling lysis buffer (Cat #9803) with the addition of Roche protease inhibitor tablets (Cat #11873580001), and lysates clarified by microcentrifugation. Proteins were separated by SDS-PAGE, and transferred onto nitrocellulose membranes using an Invitrogen iBlot system. Immunoblotting was performed for BRaf (Santa Cruz Cat #9002), CRAF (BD Cat #610151), and pErk (Cell Signaling Cat #9106). GAPDH (Cell Signaling Cat #2118) was used as a loading control. Quantification was carried out using the BioRad Image Lab 5 software.
6. BRaf In-Cell Western Cellular Degradation Assay (A375 Cells) of Table 7
A375 cells were cultured in ATCC DMEM+10% FBS in 96-well plates, and treated with indicated compounds from Tables-43 or 0.1% DMSO vehicle control for 72 hours. Cells were washed with PBS 1×, and affixed to plate using 4% PFA in phosphate buffered saline for 15 minutes; washed 1× and permeabilized using 0.1% Triton-X-100 in PBS for 5 minutes; washed 1× and blocked with LICOR blocker (Cat. #927-50000) for 1 hour. Cells were then incubated with B-Raf antibody (Santa Cruz Cat #9002, Santa Cruz Cat #528) and tubulin antibody (Sigma #T6074) in LICOR blocker for 18 hours. Cells were washed 3× prior to adding secondary antibodies (LICOR cat #926-32210 and 926-68071) and incubated for 1 hour. Cells were washed 3× and imaged using LICOR Odyssey Software.

[2] = target: T2, BRD4 (Homo sapiens, UniProt O60885); assay: BRD4 Western protocol in 22Rv-1 or VCaP cells; type: cell-based; details: 16 hours, western blot
T2 construct: 22Rv-1 or VCaP cells were purchased from ATCC and cultured in Dulbecco's Modified Eagle's Medium; host or cells: 22Rv-1 or VCaP cells
Protocol: 7. BRD4 Western Protocol for Table 8
22Rv-1 or VCaP cells were purchased from ATCC and cultured in Dulbecco's Modified Eagle's Medium (ATCC), supplemented with 10% FBS (ATCC) and Penicillin/Streptomycin (Life Technologies). DMSO control and compound treatments (0.003 μM, 0.01 μM, 0.03 μM and 0.1 μM) were performed in 12-well plates for 16 hours. Cells were harvested, and lysed in RIPA buffer (50 mM Tris pH8, 150 mM NaCl, 1% Tx-100, 0.1% SDS, 0.5% sodium deoxycholate) supplemented with protease and phosphatase inhibitors. Lysates were clarified at 16,000 g for 10 minutes, and protein concentration was determined. Equal amount of protein (20 μg) was subjected to SDS-PAGE analysis and followed by immunoblotting according to standard protocols. The antibodies used were BRD4 (Cell Signaling #13440), and Actin (Sigma #5441). Detection reagents were Clarity Western ECL substrate (Bio-rad #170-5060).

T1 sequence (P15056 whole entry V600E): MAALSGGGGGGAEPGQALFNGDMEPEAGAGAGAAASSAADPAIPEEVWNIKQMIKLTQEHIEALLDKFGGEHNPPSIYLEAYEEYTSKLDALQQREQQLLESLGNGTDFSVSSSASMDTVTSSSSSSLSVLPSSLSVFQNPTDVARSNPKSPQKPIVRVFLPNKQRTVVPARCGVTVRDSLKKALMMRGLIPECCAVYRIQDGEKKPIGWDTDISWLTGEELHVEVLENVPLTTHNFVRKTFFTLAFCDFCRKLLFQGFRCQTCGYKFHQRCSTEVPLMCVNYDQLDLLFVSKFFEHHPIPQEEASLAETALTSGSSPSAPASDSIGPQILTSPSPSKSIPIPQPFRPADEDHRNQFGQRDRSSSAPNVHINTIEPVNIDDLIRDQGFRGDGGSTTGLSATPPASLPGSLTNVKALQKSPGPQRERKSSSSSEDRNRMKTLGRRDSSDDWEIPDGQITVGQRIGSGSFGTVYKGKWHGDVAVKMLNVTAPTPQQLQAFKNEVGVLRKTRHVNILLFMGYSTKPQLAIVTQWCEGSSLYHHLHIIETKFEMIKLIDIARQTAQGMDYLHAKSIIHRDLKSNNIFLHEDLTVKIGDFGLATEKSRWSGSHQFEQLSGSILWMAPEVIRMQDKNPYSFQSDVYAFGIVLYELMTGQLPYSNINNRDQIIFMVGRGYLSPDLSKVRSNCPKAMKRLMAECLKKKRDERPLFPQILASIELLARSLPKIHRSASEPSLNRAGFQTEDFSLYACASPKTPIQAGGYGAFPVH
T1 sequence (Q96SW2 whole entry partner): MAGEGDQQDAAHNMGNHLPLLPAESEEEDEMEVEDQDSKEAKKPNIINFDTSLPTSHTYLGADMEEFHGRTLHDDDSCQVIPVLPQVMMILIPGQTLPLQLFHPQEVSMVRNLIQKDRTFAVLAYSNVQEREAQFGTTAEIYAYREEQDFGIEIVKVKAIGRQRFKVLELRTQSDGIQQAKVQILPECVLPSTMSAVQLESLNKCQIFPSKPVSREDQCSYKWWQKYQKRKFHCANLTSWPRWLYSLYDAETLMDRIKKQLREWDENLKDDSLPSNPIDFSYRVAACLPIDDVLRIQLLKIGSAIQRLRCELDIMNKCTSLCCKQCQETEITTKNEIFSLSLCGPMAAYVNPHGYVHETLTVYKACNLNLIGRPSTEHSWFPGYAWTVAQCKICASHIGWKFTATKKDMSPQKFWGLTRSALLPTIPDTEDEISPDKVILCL

SMILES: O=C1CCC(N2C(=O)c3cc(N4CCN(c5ccc(-n6cc(-c7ccc8c(c7)CC/C8=N\O)c(-c7ccncc7)n6)cc5)CC4)cc(-c4ccccc4)c3C2=O)C(=O)N1 (centres unmarked) [compound 39, (E)-2-(2,6-dioxopiperidin-3-yl)-6-(4-(4-(4-(1-(hydroxyimino)-2,3-dihydro-1H-inden-5-yl)-3-(pyridin-4-yl)-1H-pyrazol-1-yl)phenyl)piperazin-1-yl)-4-phenylisoindoline-1,3-dione]
- DC50 [1]: 10 to 100 nM
- Dmax [1]: 50 to 75%

SMILES: Cc1cc2c(cc1N1CCN(c3ccc(-n4cc(-c5ccc6c(c5)CC/C6=N\O)c(-c5ccncc5)n4)cc3)CC1)C(=O)N(C1CCC(=O)NC1=O)C2=O (centres unmarked) [compound 40, (E)-2-(2,6-dioxopiperidin-3-yl)-5-(4-(4-(4-(1-(hydroxyimino)-2,3-dihydro-1H-inden-5-yl)-3-(pyridin-4-yl)-1H-pyrazol-1-yl)phenyl)pipeiazin-1-yl)-6-methylisoindoline-1,3-dione]
- DC50 [1]: 10 to 100 nM
- Dmax [1]: ≥ 75%

SMILES: O=C1CCC(N2C(=O)c3ccc(N4CCN(c5ccc(-n6cc(-c7ccc8c(c7)CC/C8=N\O)c(-c7ccncc7)n6)cc5)CC4)c(-c4ccccc4)c3C2=O)C(=O)N1 (centres unmarked) [compound 41, (E)-2-(2,6-dioxopiperidin-3-yl)-5-(4-(4-(4-(1-(hydroxyimino)-2,3-dihydro-1H-inden-5-yl)-3-(pyridin-4-yl)-1H-pyrazol-1-yl)phenyl)piperazin-1-yl)-4-phenylisoindoline-1,3-dione]
- DC50 [1]: 10 to 100 nM
- Dmax [1]: ≥ 75%

SMILES: Cc1c(N2CCN(c3ccc(-n4cc(-c5ccc6c(c5)CC/C6=N\O)c(-c5ccncc5)n4)cc3)CC2)ccc2c1C(=O)N(C1CCC(=O)NC1=O)C2=O (centres unmarked) [compound 42, (E)-2-(2,6-dioxopiperidin-3-yl)-5-(4-(4-(4-(1-(hydroxyimino)-2,3-dihydro-1H-inden-5-yl)-3-(pyridin-4-yl)-1H-pyrazol-1-yl)phenyl)piperazin-1-yl)-4-methylisoindoline-1,3-dione]
- DC50 [1]: 10 to 100 nM
- Dmax [1]: 50 to 75%

SMILES: Cc1sc2c(c1C)C(c1ccc(Cl)cc1)=N[C@@H](CC(=O)Nc1ccc(OCCOCCOCCOCCNc3cccc4c3CN([C@H]3CCC(=O)NC3)C4=O)cc1)c1nnc(C)n1-2 [compound 43, 2-((R)-4-(4-chlorophenyl)-2,3,9-trimethyl-6H-thieno[3,2-f][1,2,4]triazolo[4,3-a][1,4]diazepin-6-yl)-N-(4-(2-(2-(2-(2-((1-oxo-2-((R)-6-oxopiperidin-3-yl)isoindolin-4-yl)amino)ethoxy)ethoxy)ethoxy)ethoxy)phenyl)acelamide]
- DC50 [2]: ≥ 100 nM
- Dmax [2]: 50 to 75%

SMILES: Cc1sc2c(c1C)C(c1ccc(Cl)cc1)=N[C@@H](CC(=O)Nc1ccc(OCCOCCOCCOCCOc3cccc4c(=O)n(C5CCC(=O)NC5=O)c(C)nc34)cc1)c1nnc(C)n1-2 (stereo partly drawn) [compound 44, 2-((S)-4-(4-chlorophenyl)-2,3,9-trimethyl-6H-thieno[3,2-f][1,2,4]triazolo[4,3-a][1,4]diazepin-6-yl)-N-(4-(2-(2-(2-(2-((3-(2,6-dioxopiperidin-3-yl)-2-methyl-4-oxo-3,4-dihydroquinazolin-8-yl)oxy)ethoxy)ethoxy)ethoxy)ethoxy)phenyl)acetamide]
- DC50 [2]: ≥ 100 nM
- Dmax [2]: < 50%

SMILES: Cc1sc2c(c1C)C(c1ccc(Cl)cc1)=N[C@@H](CC(=O)Nc1ccc(OCCOCCOCCOCCOc3ccc4c(=O)n(C5CCC(=O)NC5=O)c(C)nc4c3)cc1)c1nnc(C)n1-2 (stereo partly drawn) [compound 45, 2-((S)-4-(4-chlorophenyl)-2,3,9-trimethyl-6H-thieno[3,2-f][1,2,4]triazolo[4,3-a][1,4]diazepin-6-yl)-N-(4-(2-(2-(2-(2-((3-(2,6-dioxopiperidin-3-yl)-2-methyl-4-oxo-3,4-dihydroquinazolin-7-yl)oxy)ethoxy)ethoxy)ethoxy)ethoxy)phenyl)acetamide]
- DC50 [2]: 10 to 100 nM
- Dmax [2]: ≥ 75%
